In ChEMBL document CHEMBL5252560 (Bioorg Med Chem Lett, 2023):

How the values were obtained:
Assay type in all cases: functional, cell-based
A549 = assay: Antiproliferative activity against human A549 cells assessed as cell growth inhibition
Y79 = assay: Antiproliferative activity against human Y79 cells assessed as cell growth inhibition
HepG2 = assay: Antiproliferative activity against human HepG2 cells assessed as cell growth inhibition
U-937 = assay: Antiproliferative activity against human U-937 cells assessed as cell growth inhibition

| IC50 (A549) | IC50 (HepG2) | IC50 (U-937) | Structure (SMILES) | IC50 (Y79) |
| --- | --- | --- | --- | --- |
| 7.13 µM | 4.35 µM | 3.49 µM | COc1cc(C2=NNC(c3c[nH]c4ccccc34)C2)cc(OC)c1OC (stereo not drawn) | > 10 µM |
| 3.41 µM | 4.56 µM | 1.24 µM | COc1cc(C2=NNC(c3c[nH]c4cc(Br)ccc34)C2)cc(OC)c1OC (stereo not drawn) | > 10 µM |
| > 10 µM | > 10 µM | 0.919 µM | COc1cc(-c2cc(-c3cccc4ccccc34)on2)cc(OC)c1OC | > 10 µM |
| > 10 µM | 6.3 µM | > 10 µM | COc1cc(C2=NOC(c3ccc4ccccc4c3)C2)cc(OC)c1OC (stereo not drawn) | > 10 µM |
| > 10 µM | > 10 µM | 9.31 µM | COc1cc(C(/C=C/c2ccc3oc4ccccc4c3c2)=N/O)cc(OC)c1OC | > 10 µM |
| > 10 µM | > 10 µM | > 10 µM | COc1cc(C2=NNC(c3cccc4ccccc34)C2)cc(OC)c1OC (stereo not drawn) | > 10 µM |
| > 10 µM | > 10 µM | > 10 µM | COc1cc(C2=NNC(c3cc4ccccc4s3)C2)cc(OC)c1OC (stereo not drawn) | > 10 µM |
| > 10 µM | > 10 µM | > 10 µM | COc1cc(-c2cc(-c3ccc4ccccc4c3)on2)cc(OC)c1OC | > 10 µM |
| > 10 µM | > 10 µM | > 10 µM | COc1cc(C2=NOC(c3csc4ccccc34)C2)cc(OC)c1OC (stereo not drawn) | > 10 µM |
| > 10 µM | > 10 µM | > 10 µM | COc1cc(C2=NNC(c3ccc4cc[nH]c4c3)C2)cc(OC)c1OC (stereo not drawn) | > 10 µM |
| > 10 µM | > 10 µM | > 10 µM | COc1cc(C2=NOC(c3cccc4c3OCO4)C2)cc(OC)c1OC (stereo not drawn) | > 10 µM |
| > 10 µM | 6.93 µM | > 10 µM | COc1cc(C2=NNC(c3ccc4c(c3)CCO4)C2)cc(OC)c1OC (stereo not drawn) | > 10 µM |
| > 10 µM | > 10 µM | > 10 µM | COc1cc(C2=NNC(c3ccc4ccccc4c3)C2)cc(OC)c1OC (stereo not drawn) | > 10 µM |
| > 10 µM | 1.68 µM | 0.233 µM | COc1cc(C2=NOC(c3ccc4sc5ccccc5c4c3)C2)cc(OC)c1OC (stereo not drawn) | > 10 µM |
| > 10 µM | > 10 µM | 5.51 µM | COc1cc(C2=NOC(c3ccc4[nH]ccc4c3)C2)cc(OC)c1OC (stereo not drawn) | > 10 µM |
| > 10 µM | > 10 µM | > 10 µM | COc1cc(C2=NNC(c3ccc4occc4c3)C2)cc(OC)c1OC (stereo not drawn) | > 10 µM |
| > 10 µM | 0.743 µM | 1.39 µM | COc1cc(C(/C=C/c2ccc3sc4ccccc4c3c2)=N/O)cc(OC)c1OC | > 10 µM |
| > 10 µM | > 10 µM | > 10 µM | COc1cc(C2=NNC(c3cccc4c3OCO4)C2)cc(OC)c1OC (stereo not drawn) | > 10 µM |
| > 10 µM | > 10 µM | > 10 µM | COc1cc(C2=NOC(c3ccc4c(c3)CCO4)C2)cc(OC)c1OC (stereo not drawn) | > 10 µM |
| 5.9 µM | 8.33 µM | 6.29 µM | COc1cc(-c2cc(-c3ccc4c(c3)OCCO4)on2)cc(OC)c1OC | > 10 µM |
| > 10 µM | > 10 µM | > 10 µM | COc1cc(C2=NNC(c3ccc4sc5ccccc5c4c3)C2)cc(OC)c1OC (stereo not drawn) | > 10 µM |
| > 10 µM | > 10 µM | > 10 µM | COc1cc(C2=NNC(c3cc4ccccc4o3)C2)cc(OC)c1OC (stereo not drawn) | > 10 µM |
| > 10 µM | > 10 µM | > 10 µM | COc1cc(C2=NNC(c3coc4ccccc34)C2)cc(OC)c1OC (stereo not drawn) | > 10 µM |
| 0.445 µM | 0.466 µM | 0.475 µM | COc1cc(C(/C=C/c2ccc3ncccc3c2)=N/O)cc(OC)c1OC | > 10 µM |

| IC50 (A549) | IC50 (HepG2) | IC50 (U-937) | Structure (SMILES) | IC50 (Y79) |
| --- | --- | --- | --- | --- |
| > 10 µM | > 10 µM | > 10 µM | COc1cc(C2=NOC(c3cccc4ccccc34)C2)cc(OC)c1OC (stereo not drawn) | > 10 µM |
| > 10 µM | > 10 µM | > 10 µM | COc1cc(-c2cc(-c3cccc4c3OCO4)on2)cc(OC)c1OC | > 10 µM |
| > 10 µM | 2.32 µM | 1.95 µM | CCn1c2ccccc2c2cc(C3CC(c4cc(OC)c(OC)c(OC)c4)=NN3)ccc21 (stereo not drawn) | > 10 µM |
| > 10 µM | > 10 µM | > 10 µM | COc1cc(C2=NOC(c3ccc4occc4c3)C2)cc(OC)c1OC (stereo not drawn) | > 10 µM |
| 1.96 µM | 0.692 µM | 5.21 µM | CCn1c2ccccc2c2cc(/C=C/C(=N\O)c3cc(OC)c(OC)c(OC)c3)ccc21 | > 10 µM |
| > 10 µM | > 10 µM | > 10 µM | COc1cc(C2=NNC(c3ccc4c(c3)OCCO4)C2)cc(OC)c1OC (stereo not drawn) | > 10 µM |
| > 10 µM | 5.61 µM | 3.38 µM | COc1cc(C2=NOC(c3c[nH]c4ccccc34)C2)cc(OC)c1OC (stereo not drawn) | > 10 µM |
| > 10 µM | > 10 µM | > 10 µM | COc1cc(C2=NOC(c3cc(OC)c(OC)c(OC)c3)C2)cc(OC)c1OC (stereo not drawn) | > 10 µM |
| 2.79 µM | 3.42 µM | 0.953 µM | COc1cc(C2=NNC(c3ccc4[nH]ccc4c3)C2)cc(OC)c1OC (stereo not drawn) | > 10 µM |
| > 10 µM | > 10 µM | > 10 µM | COc1cc(C2=NOC(c3cc4ccccc4o3)C2)cc(OC)c1OC (stereo not drawn) | > 10 µM |
| > 10 µM | > 10 µM | > 10 µM | COc1cc(C2=NOC(c3ccc4c(c3)OCCO4)C2)cc(OC)c1OC (stereo not drawn) | > 10 µM |
| > 10 µM | > 10 µM | > 10 µM | COc1cc(C2=NNC(c3ccc4oc5ccccc5c4c3)C2)cc(OC)c1OC (stereo not drawn) | > 10 µM |
| > 10 µM | 4.37 µM | 1.56 µM | CCn1c2ccccc2c2cc(C3CC(c4cc(OC)c(OC)c(OC)c4)=NO3)ccc21 (stereo not drawn) | > 10 µM |
| > 10 µM | 0.601 µM | 10 µM | COc1cc(C(/C=C/c2cccc3ccccc23)=N/O)cc(OC)c1OC | > 10 µM |
| > 10 µM | 6.35 µM | 7.36 µM | COC(=O)c1ccc2c(C3CC(c4cc(OC)c(OC)c(OC)c4)=NN3)c[nH]c2c1 (stereo not drawn) | > 10 µM |
| > 10 µM | 0.432 µM | > 7.43 µM | COc1cc(C(/C=C/c2ccc3ccccc3c2)=N/O)cc(OC)c1OC | > 10 µM |
| > 10 µM | 0.179 µM | 0.873 µM | COc1cc(C(/C=C/c2ccc3occc3c2)=N/O)cc(OC)c1OC | 0.371 µM |
| > 10 µM | > 10 µM | > 10 µM | COc1cc(C2=NNC(c3ccc4ncccc4c3)C2)cc(OC)c1OC (stereo not drawn) | > 10 µM |
| > 10 µM | 0.493 µM | 0.284 µM | COc1cc(C(/C=C/c2cc3ccccc3s2)=N/O)cc(OC)c1OC | > 10 µM |
| > 10 µM | > 10 µM | > 10 µM | COc1cc(C2=NNC(c3csc4ccccc34)C2)cc(OC)c1OC (stereo not drawn) | > 10 µM |
| > 10 µM | > 10 µM | > 10 µM | COC(=O)c1ccc2c(C3CC(c4cc(OC)c(OC)c(OC)c4)=NO3)c[nH]c2c1 (stereo not drawn) | > 10 µM |
| > 10 µM | > 10 µM | > 10 µM | COc1cc(C2=NOC(c3ccc4oc5ccccc5c4c3)C2)cc(OC)c1OC (stereo not drawn) | > 10 µM |
| > 10 µM | > 10 µM | > 10 µM | COc1cc(C2=NOC(c3ccc4ncccc4c3)C2)cc(OC)c1OC (stereo not drawn) | > 10 µM |
